System: BRSNS
Experiment: Drought stress test on crop plants, spray application, visual damage rating (BRSNS)
Format: in vivo, Brassica napus
Conditions: dosage 250 g/ha, mean of three results
Procedure: Seeds of monocotyledonous and dicotyledonous crop plants were laid out in sandy loam in wood-fiber pots, covered with soil and cultivated in a greenhouse under good growth conditions. The test plants were treated at the early leaf stage (BBCH10-BBCH13). To ensure uniform water supply before commencement of stress, the potted plants were supplied with the maximum amount of water immediately beforehand by dam irrigation and, after application, transferred into plastic inserts in order to prevent subsequent, excessively rapid drying. The compounds according to the invention, formulated in the form of wettable powders (WP), wettable granules (WG), suspension concentrates (SC) or emulsion concentrates (EC), were sprayed onto the green parts of the plants as an aqueous suspension at an equivalent water application rate of 600 I/ha with addition of 0.2% wetting agent (agrotin). Substance application is followed immediately by stress treatment of the plants (cold or drought stress). […]
After the recovery phase had ended, the intensities of damage were rated visually in comparison to untreated, unstressed controls of the same age (in the case of drought stress) or the same growth stage (in the case of cold stress). The intensity of damage was first recorded as a percentage (100%=plants have died, 0%=like control plants). […]

`CCCn1cc(-c2cn(-c3ccc(F)cc3)nc2C(=O)OCC)cn1` [1-878, Ethyl 1-(4-fluorophenyl)-1-propyl-1H, 1′H-4,4′-bipyrazole-3-carboxylate] was tested, and the “EF (BRSNS), efficacy = percentage reduction in the intensity of damage” value was greater than 5%.

Reference: US9226505B2, “4-substituted 1-phenylpyrazole-3-carboxylic acid derivatives as agents against abiotic plant stress” (BAYER INTELLECTUAL PROPERTY GMBH, priority 2011, dated 2016)
